Measured values taken from US20130253022A1 (FOX CHASE CHEMICAL DIVERSITY CENTER, INC., priority 2010, published 2013).
Read-outs that look alike come from different tables or passages of the source.

Columns and labels:
hippocampal neurons = test: Prevention of reactive oxygen species accumulation from hydrogen peroxide (CDFFDA dye); assay type: cell-based; details: Rattus norvegicus, Hippocampal neuron; hydrogen peroxide for three hours, day 18 hippocampal cultures; read-out: Potency of Reduction in Oxidized CDFFDA (ROS) EC50
From the text: Cell cultures: all compounds were screened with dissociated hippocampal cultures derived from embryonic day 18 rats as the primary test system. With this preparation, primary neurons were used to test for prevention of reactive oxygen species accumulation in response to hydrogen peroxide. In brief, hippocampal tissue was obtained commercially through Brain Bits (Springfield, Ill.) and cultures prepared as previously described (Brewer, G. J. Serum-free B27/neurobasal medium supports differentiated growth of neurons from the striatum, substantia nigra, septum, cerebral cortex, cerebellum and dentate gyms. J. Neurosci. Res. 1995, 42, 674-683). […]
Hydrogen peroxide and glutamate generate reactive oxygen species (ROS) such as superoxide anions, hydrogen peroxide and hydroxyl radicals which can reactively damage cellular components including DNA, lipids and proteins (Anderson et al. (2001). Green tea catechins partially protect DNA from OH radical-induced strand breaks and base damage through fast chemical repair of DNA radicals. Carcinogenesis 2001, 22:1189-1193). […] The cultures were then treated with 30 nM hydrogen peroxide for three hours and the fluorescence measured at Ex/Em 485/508. Background fluorescence was subtracted from values obtained from wells without cells.

Hippocampal Cultures = test: Neuroprotection from heavy metal toxicity, propidium iodide assay; assay type: cell-based; details: Rattus norvegicus, read-out: Neuroprotection EC50 PI
From the text: All compounds were screened with dissociated hippocampal cultures derived from embryonic day 18 rats as the primary test system. With this preparation, primary neurons were used to test for prevention of heavy metal toxicity by the disclosed compounds. In brief, hippocampal tissue was obtained commercially through Brain Bits (Springfield, Ill.) and cultures prepared as previously described (Brewer, G. J. Serum-free B27/neurobasal medium supports differentiated growth of neurons from the striatum, substantia nigra, septum, cerebral cortex, cerebellum and dentate gyms, J. Neurosci. Res., 1995, 42, 674-683). The hippocampal neurons were platted at low density (10,000 cell/well) in a 96-well format and maintained in serum-free medium consisting of Neurobasal Medium supplemented with B27 and GlutaMAX (Gibco). Pre-coated poly-L-lysine coated plates are used because of the preferential adherence and survival of hippocampal neurons on this matrix support. Heavy metal toxicity is associated with the occurrence of seizures ([…] et al. Zinc and copper: pharmacological probes and endogenous modulators of neuronal excitability. Pharmacol. Ther. 2006, 111, 567-583). Therefore, the heavy metal toxicity studies serve as another example of the oxidative stress that the disclosed compounds have a protection action against. To establish the dose-dependency of test agents, day 18 hippocampal cultures were utilized to study the toxicity produced after treatment with the heavy metals and neuroprotection after treatment with test compounds. Serving as examples of heavy metal salts for these studies are the following: […] Prior to treatment, the B27/Neural Basal media of the cultures were replaced with B27 neural basal medium without antioxidants for 18 hours. […] Further, the removal of antioxidants in the medium was performed to obtain a significant and reproducible toxic signal for heavy metal treatment of the hippocampal neurons. At the conclusion of the 4 hour test period, the cultures are also tested for the amount of cell death as measured by the propidium iodide method. […] After removal of the growth medium, 50 μl of the 50 μM PI solution is added to cultures and allowed to incubate in the dark at room temperature for 15 min. The cultures are then assessed for fluorescence intensity at Ex536/Em590 nm in a CytoFluor fluorimeter. Results are expressed in relative fluorescent units. […] The test compound is added to the hippocampal cultures at concentrations that range from […] to […]. The incubation period is for four hours followed by the measurement of fluorescence at Ex536/Em590 nm in a CytoFluor fluorimeter. Results are expressed in relative fluorescent units. Background fluorescence was subtracted from values obtained from wells without cells.

| EC50 (hippocampal neurons) [nM] | Structure (SMILES) | EC50 (Hippocampal Cultures; Cobalt Chloride hexahydrate 10 μM) [nM] | EC50 (Hippocampal Cultures; Copper Acetate monohydrate 10 μM) [nM] | EC50 (Hippocampal Cultures; Iron sulfate hexahydrate 10 μM) [nM] | EC50 (Hippocampal Cultures; Nickel Chloride hexahydrate 10 μM) [nM] | EC50 (Hippocampal Cultures; Zinc Acetate dehydrate 1 μM) [nM] |
| --- | --- | --- | --- | --- | --- | --- |
| 0.01 | NS(=O)(=O)NCC(F)(F)c1ccccc1Cl [Example 2, 2,2-Difluoro-2-(2-chlorophenyl)-ethyl-1-sulfamide] | – | – | – | – | – |
| 0.03 | NS(=O)(=O)NCC(F)(F)c1ccccc1F [Example 1, 2,2-Difluoro-2-(2-fluorophenyl)-ethyl-1-sulfamide] | 0.1 | 0.1 | 0.01 | 0.1 | 0.01 |
